{
  "source": "patent US6569883B1",
  "about": "“Medicaments” (Glaxo Group Limited, priority 1985, dated 2003)",
  "type_in_all_cases": "in vivo",
  "key": {"[1]": {"test_system": "guinea-pigs", "assay": "Gastric emptying in guinea-pigs (passage of barium sulphate spheres, X-ray location)", "conditions": "guinea pig", "procedure": "Test compound: 1,2,3,9-tetrahydro-9-methyl-3-[(2-methyl-1H-imidazol-1-yl)methyl]-4H-carbazol-4-one hydrochloride dihydrate. The effect of the test compound on gastric emptying was determined in guinea-pigs by following the progress of polystyrene-coated barium sulphate spheres (1 mm diameter) through the gut. The experimental method was based on that described by B. Costall et. al., Eur. J. Pharmacol 91, 197-205, 1983 and B. Cox et. al., Br. J. Pharmacol. 70, 104, 1980.\nThe spheres (approximatley 30 in number) were administered orally in 0.2 ml carboxymethylcellulose with 0.05 ml glycerine. At the same time, the test compound was administered intraperitoneally at doses of 0.001, 0.01 and 0.1 mg/kg. The control animals received saline, administered intraperitoneally, in place of the test compound. Passage of the spheres through the gut was monitored at 30-60 minute intervals over a period of 2 hours by X-ray location. The number of spheres leaving the stomach was recorded and expressed as a percentage of the total."}, "[2]": {"test_system": "ferrets", "assay": "Cisplatin-induced emesis in ferrets, test compound i.v.", "conditions": "ferret", "procedure": "Both the test compound and cisplatin were prepared and administered in normal saline. The dose of test compound was calculated as the free base.\nEmesis was induced in groups of 6 male ferrets weighing between 1.5-2 kg, by intravenous administration of cisplatin at a dose of 10 mg/kg. The onset of emesis occurred between 38 and 75 minutes after injection and over a period of 2 hours the number of vomits/retches (episodes) was in the range 30-62 (average 42±5 vomits/retches per 2 h). Behavioural changes characteristic of emesis were also noted.\nThe test compound was administered to groups of 6 male ferrets (1.5-2 kg) by intravenous administration at doses of 0.01, 0.1 and 1 mg/kg, immediately prior to administration of cisplatin as described above."}, "[3]": {"test_system": "ferrets", "assay": "Cisplatin-induced emesis in ferrets, test compound i.p.", "conditions": "ferret, cisplatin 9 mg/kg i.p. + test compound 1 mg/kg i.p. 30 minutes before and 1 hour after cisplatin", "procedure": "Thus cisplatin was administered intraperitoneally to a group of 4 male ferrets at a dose of 9 mg/kg, and the time to onset of emesis and the number of emetic episodes were recorded. In a second group of four male ferrets the test compound was administered at a dose of 1 mg/kg i.p. 30 minutes before and 1 hour after intraperitoneal administration of cisplatin."}, "[4]": {"conditions": "cisplatin 10 mg/kg i.v. + test compound 0.01 mg/kg i.v."}},
  "data": [
    {"smiles": "Cc1nccn1CC1CCc2c(c3ccccc3n2C)C1=O.Cl.O.O", "note": "(stereo not drawn) [test compound, 1,2,3,9-tetrahydro-9-methyl-3-[(2-methyl-1H-imidazol-1-yl)methyl]-4H-carbazol-4-one hydrochloride dihydrate]", "values": [
      {"measurement": "Mean % Increase in gastric emptying (± s.e.)", "setting": "[1]; 0.001 mg/kg i.p., 1 hour", "value": "21 ± 8.7", "unit": "%"},
      {"measurement": "Mean % Increase in gastric emptying (± s.e.)", "setting": "[1]; 0.001 mg/kg i.p., 2 hours", "value": "57 ± 10.5", "unit": "%"},
      {"measurement": "Mean % Increase in gastric emptying (± s.e.)", "setting": "[1]; 0.01 mg/kg i.p., 1 hour", "value": "33 ± 3.6", "unit": "%"},
      {"measurement": "Mean % Increase in gastric emptying (± s.e.)", "setting": "[1]; 0.01 mg/kg i.p., 2 hours", "value": "76.5 ± 11.2", "unit": "%"},
      {"measurement": "Mean % Increase in gastric emptying (± s.e.)", "setting": "[1]; 0.1 mg/kg i.p., 1 hour", "value": "47 ± 7.6", "unit": "%"},
      {"measurement": "Mean % Increase in gastric emptying (± s.e.)", "setting": "[1]; 0.1 mg/kg i.p., 2 hours", "value": "68 ± 5.0", "unit": "%"},
      {"measurement": "Duration of emesis", "setting": "[2]; [4]", "value": 1, "unit": "h"},
      {"measurement": "Intensity of emesis", "setting": "[2]; [4]", "value": "17 ± 2.9", "unit": "episodes 2 h"},
      {"measurement": "Onset of emesis", "setting": "[2]; [4]", "value": "89 to 109", "unit": "min"},
      {"measurement": "Emesis and behavioural changes", "setting": "[2]; cisplatin 10 mg/kg i.v. + test compound 0.1 mg/kg i.v.", "value": "Emesis and behavioural changes were completely"},
      {"measurement": "Emesis and behavioural changes", "setting": "[2]; cisplatin 10 mg/kg i.v. + test compound 1 mg/kg i.v.", "value": "Emesis and behavioural changes were completely"},
      {"measurement": "Emetic response (onset of emesis, emetic episodes, retches)", "setting": "[3]", "value": "emetic response completely"}
    ]}
  ]
}
